Key:
Beta-secretase 1 [1] = biological target: T1, Beta-secretase 1 (Homo sapiens, UniProt P56817); assay: Inhibition of BACE1 at 25 uM by FRET assay
Beta-secretase 1 [2] = biological target: T1, Beta-secretase 1; assay: Inhibition of BACE1 at 50 uM by FRET assay
Beta-secretase 1 [3] = biological target: T1, Beta-secretase 1; assay: Inhibition of BACE1 by FRET assay
Beta-secretase 1 [4] = biological target: T1, Beta-secretase 1; assay: Inhibition of BACE1 at 100 uM by FRET assay
Cathepsin D = Cathepsin D (Homo sapiens, UniProt P07339); assay: Inhibition of cathepsin D by FRET assay
Homo sapiens = species: Homo sapiens; assay: Selectivity ratio of IC50 for cathepsin D to IC50 for BACE1

T1 sequence (P56817 whole entry): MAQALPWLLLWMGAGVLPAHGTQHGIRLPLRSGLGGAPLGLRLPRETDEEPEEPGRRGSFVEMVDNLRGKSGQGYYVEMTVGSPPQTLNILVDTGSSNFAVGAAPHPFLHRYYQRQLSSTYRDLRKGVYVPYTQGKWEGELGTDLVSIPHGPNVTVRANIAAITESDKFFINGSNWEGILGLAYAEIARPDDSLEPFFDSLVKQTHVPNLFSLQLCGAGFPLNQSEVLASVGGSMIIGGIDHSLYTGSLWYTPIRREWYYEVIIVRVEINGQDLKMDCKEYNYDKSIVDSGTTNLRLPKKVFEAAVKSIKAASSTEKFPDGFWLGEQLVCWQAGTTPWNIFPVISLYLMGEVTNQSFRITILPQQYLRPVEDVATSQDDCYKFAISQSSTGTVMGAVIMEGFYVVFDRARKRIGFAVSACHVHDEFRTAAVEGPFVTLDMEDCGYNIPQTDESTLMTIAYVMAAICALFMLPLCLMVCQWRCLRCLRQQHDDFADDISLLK
Chain of Cathepsin D (P07339 65-162 limits assumed): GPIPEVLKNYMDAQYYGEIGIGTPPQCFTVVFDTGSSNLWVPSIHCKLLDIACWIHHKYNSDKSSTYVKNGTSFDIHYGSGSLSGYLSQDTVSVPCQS
Chain of Cathepsin D (P07339 169-412 limits assumed): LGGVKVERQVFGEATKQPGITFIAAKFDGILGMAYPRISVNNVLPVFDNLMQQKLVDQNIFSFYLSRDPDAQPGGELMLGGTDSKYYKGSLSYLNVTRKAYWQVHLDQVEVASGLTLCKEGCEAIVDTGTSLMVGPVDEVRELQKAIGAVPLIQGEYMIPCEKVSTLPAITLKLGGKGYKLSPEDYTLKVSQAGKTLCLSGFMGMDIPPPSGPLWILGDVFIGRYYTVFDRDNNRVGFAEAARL

| inhibition (Beta-secretase 1 [1]) [%] | inhibition (Beta-secretase 1 [2]) [%] | IC50 (Beta-secretase 1 [3]) [µM] | inhibition (Beta-secretase 1 [4]) [%] | IC50 (Cathepsin D) [µM] | Ratio IC50 (Homo sapiens) | SMILES |
| --- | --- | --- | --- | --- | --- | --- |
| 69 | 87 | 36.1 | 100 |  |  | Nc1cccc(SCC(O)Cn2c3ccccc3c3ccccc32)c1 (stereo not drawn) |
| 73 | 89 | 21.4 | 92 |  |  | Cc1ccccc1SCC(O)Cn1c2c(c3ccccc31)CCC2 (stereo not drawn) |
|  |  | > 50 |  |  |  | c1ccc2cc(SCC(Cn3c4ccccc4c4ccccc43)N3CCNCC3)ccc2c1 (racemic) |
| 65 | 87 | 7.52 | 99 | > 300 |  | CCc1cccc2ccn(CC(O)CSc3ccccc3Cl)c12 (stereo not drawn) |
| 68 | 86 | 11 | 95 |  |  | OC(CSc1ccccc1F)Cn1c2c(c3ccccc31)CCCC2 (stereo not drawn) |
|  |  | 7.98 |  | > 300 |  | O[C@@H](CSc1ccc2ccccc2c1)Cn1c2ccccc2c2ccccc21 |
|  |  | 10.5 |  |  |  | OC(CSc1ccc2ccccc2c1)Cn1ccc2ccccc21 (stereo not drawn) |
|  |  | > 80 |  |  |  | O=C(CSc1ccc2ccccc2c1)Cn1c2ccccc2c2ccccc21 |
| 85 | 100 | 10.7 | 94 |  |  | Oc1ccc(SCC(O)COc2ccc(Cc3ccccc3)cc2)cc1 (stereo not drawn) |
|  |  | 6.66 |  | > 300 | 50 | OC(CSc1ccc2ccccc2c1)Cn1c(-c2ccccc2)cc2ccccc21 (stereo not drawn) |
| 87 | 102 | 25.4 | 86 |  |  | Oc1ccccc1SCC(O)Cn1c(-c2ccccc2)cc2ccccc21 (stereo not drawn) |
|  |  | 5.39 |  | > 300 |  | O[C@H](CSc1ccc2ccccc2c1)Cn1c2ccccc2c2ccccc21 |
|  |  | 0.71 |  | > 300 | > 422 | OC(Cn1c2ccccc2c2ccccc21)Cn1c2ccccc2c2ccccc21 |
|  |  | > 100 |  |  |  | OC(CCn1c2ccccc2c2ccccc21)Cn1c2ccccc2c2ccccc21 (stereo not drawn) |
| 68 | 99 | 8.28 | 92 | > 300 |  | OC(CSc1ccccc1Cl)Cn1c2c(c3ccccc31)CCCC2 (stereo not drawn) |
|  |  | 4.31 |  | > 300 |  | OC(CCn1c2ccccc2c2ccccc21)CSc1ccc2ccccc2c1 (stereo not drawn) |
| 64 | 74 | 4.93 | 76 | > 300 | 50 | OC(CSc1ccc2ccccc2c1)Cn1c2ccccc2c2ccccc21 (stereo not drawn) |
|  |  | 7.38 |  | > 300 |  | NCCNC(CSc1ccc2ccccc2c1)Cn1c2ccccc2c2ccccc21 (racemic) |

| inhibition (Beta-secretase 1 [1]) [%] | inhibition (Beta-secretase 1 [2]) [%] | IC50 (Beta-secretase 1 [3]) [µM] | inhibition (Beta-secretase 1 [4]) [%] | IC50 (Cathepsin D) [µM] | Ratio IC50 (Homo sapiens) | SMILES |
| --- | --- | --- | --- | --- | --- | --- |
| 58 | 90 | 15.2 | 87 |  |  | COc1ccc(SCC(O)Cn2c3c(c4ccccc42)CCCC3)cc1 (stereo not drawn) |
| 62 | 73 | 9.6 | 81 | > 300 |  | OC(COc1ccc(Cc2ccccc2)cc1)CSc1ccccc1Cl (stereo not drawn) |
|  |  | > 30 |  |  |  | OC(CSc1ccc2ccccc2c1)CSc1ccc2ccccc2c1 |
| 72 | 77 | 13.6 | 86 |  |  | Oc1ccc(SCC(O)Cn2c(-c3ccccc3)cc3ccccc32)cc1 (stereo not drawn) |
| 45 | 65 |  | 76 |  |  | Cc1ccc(SCC(O)Cn2c(-c3ccccc3)cc3ccccc32)cc1 (stereo not drawn) |
|  |  | 6.74 |  | > 300 |  | OC(CCSc1ccc2ccccc2c1)Cn1c2ccccc2c2ccccc21 (stereo not drawn) |
| 55 | 81 |  | 91 |  |  | Cc1ccc(SCC(O)Cn2c3c(c4ccccc42)CCC3)cc1 (stereo not drawn) |
| 56 | 92 |  | 87 |  |  | OC(CSc1ccc(F)cc1)Cn1c2c(c3ccccc31)CCCC2 (stereo not drawn) |
| 60 | 72 | 10.3 | 80 |  |  | CCc1ccccc1SCC(O)Cn1c(-c2ccccc2)cc2ccccc21 (stereo not drawn) |
|  |  | 10.1 |  |  |  | OC(CSc1ccc2ccccc2c1)C(O)Cn1c2ccccc2c2ccccc21 (stereo not drawn) |
| 43 | 80 |  | 87 |  |  | OC(CSc1ccc2ccccc2c1)Cn1c2c(c3ccccc31)CCC2 (stereo not drawn) |
| 67 | 84 | 5.36 | 89 | > 300 |  | OC(CSc1ccccc1F)Cn1c2ccccc2c2ccccc21 (stereo not drawn) |
| 38 | 61 |  | 92 |  |  | CCc1ccc(SCC(O)Cn2ccc3cccc(CC)c32)cc1 (stereo not drawn) |
|  |  | 7.52 |  | > 300 |  | c1ccc2cc(SCCCn3c4ccccc4c4ccccc43)ccc2c1 |
|  |  | 8.82 |  | > 300 |  | OC(Cn1c2ccccc2c2ccccc21)C(O)Cn1c2ccccc2c2ccccc21 (stereo not drawn) |
|  |  | 15.7 |  |  |  | NC(CSc1ccc2ccccc2c1)Cn1c2ccccc2c2ccccc21 (racemic) |
| 37 | 72 |  | 88 |  |  | COc1ccc(SCC(O)Cn2c3ccccc3c3ccccc32)cc1 (stereo not drawn) |

Source: ChEMBL document CHEMBL2057073, “Synthesis and structure-activity relationship studies of 1,3-disubstituted 2-propanols as BACE-1 inhibitors” (Bioorg Med Chem Lett, 2012)
